From patent publication US10722488B2, “Hest G-18-0 and benzoyl peroxide compositions and methods for using the same” (RODAN & FIELDS, LLC, priority 2016, dated 2020)

Legend:
[1] = cited from earlier work
[2] = Solubility of benzoyl peroxide, judged by eye (crystals disappear or stay at the bottom); assay type: physicochemical
Protocol: In embodiments described herein, the solubility of benzoyl peroxide is increased. The composition of benzoyl peroxide and Hest G-18-0 is transparent. Solubility is measured by visualizing whether the solid crystalline form of benzoyl peroxide disappears in the liquid or if it can be seen at the bottom of the solution in an undissolved crystalline form.

skin of the forearm = conditions: in vivo

Row | Compound | solubility of benzoyl peroxide in water ([1]; at 25° C.) | solubility in common cosmetic solvents ([1]; ethanol, glycerin, propylene glycol, or butylene glycol) | solubility of benzoyl peroxide in Hest G-18-0 ([2]; 5% benzoyl peroxide in 100% Hest G-18-0, visual, FIG. 1 right beaker) | solubility of benzoyl peroxide in ethoxydiglycol ([2]; 5% benzoyl peroxide in 100% ethoxydiglycol, visual, FIG. 1 left beaker) | erythema of the skin (skin of the forearm)
1 | O=C(OOC(=O)c1ccccc1)c1ccccc1 [benzoyl peroxide, Benzoyl peroxide] | 9.1 ppm | practically insoluble | completely dissolved | insolubility | –
2 | Glycereth-18 ethylhexanoate [Hest G-18-0] | – | – | – | – | greatly reduced
